Data taken from US20260294884A1 (Insilico Medicine IP Limited, priority 2023, published 2026).
Where “and” joins values, the source holds several entries; their conditions need not be identical. Equal values may be shown once. Read-outs that look alike come from different tables or passages of the source.

Key:
[1] = test system: Caco-2 cells; assay: Permeability, Caco-2 assay; assay type: in vitro ADME; details: 37 °C; for Mean Papp A to B: Caco-2, pH 7.40, 2 hours
Procedure: Permeability of test compounds was determined in Caco-2 Assay. Caco-2 cells purchased from ATCC were seeded onto […] membranes (PET) in 96-well Corning Insert plates at 1×10^5 cells/cm^2, and refreshed medium every 4~5 days until to the 21st to 28th day for confluent cell monolayer formation. The transport buffer in the study was HBSS with 10.0 mM HEPES at pH 7.40±0.05. Test compound was tested at […] bi-directionally in duplicate. Digoxin was tested at 10.0 μM bi-directionally in duplicate, while nadolol and metoprolol were tested at 2.00 μM in A to B direction in duplicate. Final DMSO concentration was adjusted to less than 1%. The plate was incubated for 2 hours in CO2 incubator at 37±1° C., with 5% CO2 at saturated humidity without shaking. And all samples after mixed with acetonitrile containing internal standard were centrifuged at 3200×g for 10 min. For nadolol and metoprolol, 200 μL supernatant solution was diluted with 600 μL ultra-pure water for LC-MS/MS analysis. For digoxin and test compounds, 200 μL supernatant solution was diluted with 200 μL ultra-pure water for LC-MS/MS analysis. Concentrations of test and control compounds in starting solution, donor solution, and receiver solution were quantified by LC-MS/MS methodologies, using peak area ratio of analyte/internal standard. After transport assay, lucifer yellow rejection assay was applied to determine the Caco-2 cell monolayer integrity.

[2] = Body weight change in PDX study in NCG mice; assay type: in vivo; details: P.O QD × 27; all mice
Description: (§1) Mice were assigned into groups using randomized block design based on their tumor volumes. The test article administration and the animal numbers in each study group are shown in the following experimental design table 5, the PDX model information are shown in the table 6.
(§2) For routine monitoring, all study animals were monitored for not only tumor growth but also behavior such as mobility, food, and water consumption (by cage side checking only), body weight (BW), eye/hair matting and any other abnormal effect. Any mortality and/or abnormal clinical signs were recorded.
Body weights of all animals were measured twice a week throughout the study. Body weight change, expressed in %, is calculated using the following formula: BWL (%)=(BWi−BW0)/BW0×100, BWi is the body weight, BW0 is the bodyweight on the first day of treatment.
The statistical software GraphPad Prism was used to analyze the difference in tumor volume and body weight between the treatment group and the vehicle control group. All the data is described as Mean±SEM, and one-way ANOVA analysis of variance was performed.

[3] = test system: ER+/KAT6a^high ZR-75-1 breast cancer cell line; assay: In vitro cytotoxicity in ER+/KAT6a^high ZR-75-1 breast cancer cell line (CTG assay, 14 days); assay type: cell-based, Human
Procedure: Single agent experiments (n=3 per each compound) were performed to obtain the IC10, IC25, IC50 and IC75 values for each drug to be used hereafter in the combo treatment.
The cytotoxicity was evaluated by CTG assay upon 14 days of treatment and stimulation with 1 nM E2. Statistical analysis was performed by 2 way ANOVA Tukey's multiple comparison test (* 0.01<p<0.05).
Human ER+/KAT6A^high breast cancer cell line ZR-75-1 (ATCC, Virginia, US) was cultured in RPMI 1640 medium (Gibco, Life Technologies, Carlsbad, CA, USA) supplemented with 10% fetal bovine serum (FBS)(Sigma, Saint Louis, CA, USA). All cells were incubated at 37° C., 5% CO2, 80-95% relative humidity.
Stock solutions were added at appropriate concentration in culture medium before the addition to cells.
For the cytotoxicity assay, cells were previously starved 48 h in RPMI 1640 no phenol red supplemented with 8% charcoal stripped FBS, and then seeded at appropriate density (2000 cells/well) in starvation media the day before starting the treatment. […] Concentration range was previously identified in single agent cytotoxic assay for the same time points in order to include in the combination experiment IC10, IC25, IC50 and IC75 values for each drug. After 14 days of treatment, CellTiter-Glo® 2.0 Cell Viability Assay (CTG)(Promega, Madison, WI, USA) was added to assess cell viability. Luminescence was measured 10 min later using Tecan Infinite M200 (Tecan Trading AG, Switzerland).

[4] = test system: LD1-0009-362391 PDX model; parameters: species or system NCG Mice; details: mouse, in vivo
Procedure: About 50-90 mg tumor pieces were implanted subcutaneously on the right flank of each mouse. The treatments were started when the mean tumor size reaches approximately 150 (100-300) mm^3. The tumor size was measured in two dimensions using a caliper, and the volume was expressed in mm^3 using the formula: V=0.5 a×b^2 where a and b are the long and short diameters of the tumor, respectively.
as §1
The PDX model is derived from a patient with invasive breast carcinoma, who received and progressed on multiple prior lines of treatment including docetaxel, epirubicin, cyclophosphamide, gemcitabine, lobaplatin, tamoxifen, nab-paclitaxel, cisplatin, capecitabine, palbociclib and letrozole.
as §2
The measurement of tumor size was conducted twice a week. The tumor size was measured in two dimensions using a caliper, and the volume will be expressed in mm^3 using the formula: V=0.5a×b^2 where a and b are the long and short diameters of the tumor, respectively. The tumor sizes are used for the calculations of T/C values. The T/C value (in percent) is an indication of antitumor efficacy, T/C=RTV of treated group/RTV of Control group, RTV=Vt/V0, Vt is the mean volume after treatment on a given day, V0 is the mean tumor volume at the beginning of administration. Meanwhile the tumor volume is used for calculation of TGI of each group according to the following formula: When Tti−Tt0 >0, TGI (%)=[1−(Tti−Tt0)/(Vci−Vc0)]×100; when Tti−Tt0<0, TGI (%)=[1−(Tti−Tt0)/Tt0]×100. […]

[5] = single agent, 1 nM E2, read-out: IC50

| Structure (SMILES) | Mean Papp A to B [1] | also measured |
| --- | --- | --- |
| COc1cccc(OC)c1S(=O)(=O)Nc1noc2cc(Cn3cccn3)c3c(c12)OCCCC3 [Compound 19, N-(6-((1H-pyrazol-1-yl)methyl)-2,3,4,5,9,10-hexahydrooxepino [3′,2′: 5,6]benzo[1,2-d]isoxazol-10-yl)-2,6-dimethoxybenzenesulfonamide] | 3.47 10^-6 cm/s |  |
| COc1cccc(OC)c1S(=O)(=O)Nc1noc2cc(Cn3cccn3)c3c(c12)OCCC3 [Compound 14, N-(5-((1H-pyrazol-1-yl)methyl)-3,4-dihydro-2H-chromeno[8,7-d]isoxazol-9-yl)-2,6-dimethoxybenzenesulfonamide] | 0.439 10^-6 cm/s |  |
| COc1ccccc1S(=O)(=O)Nc1noc2cc(Cn3cccn3)cc(OC)c12 [Compound 70] |  | body weight [2]: maintained the body weight well |
| CCNCCc1ccc(CN(CC)c2cc(OC)ccc2[C@@H]2CCc3cc(O)ccc3C2)cc1 [elacestrant, reference compound] |  | IC50 ([3]; elacestrant single agent, 1 nM E2, read-out: IC50 (cytotoxic action)): 0.26 µM; IC25 ([3]; elacestrant, 1 nM E2): 0.056 µM; IC10 ([3]; single agent, 1 nM E2): 0.01 µM; IC25 ([3]; single agent, 1 nM E2): 0.056 µM; IC75 ([3]; single agent, 1 nM E2, non clinically relevant dose): 1.43 µM; IC50 [3, 5]: 0.26 µM |
| COc1ccnc(OC)c1S(=O)(=O)Nc1noc2cc(Oc3ccccn3)c3c(c12)OCCC3 [Compound 28, 2,4-dimethoxy-N-(5-(pyridin-2-yloxy)-3,4-dihydro-2H-chromeno[8,7-d]isoxazol-9-yl)pyridine-3-sulfonamide] | 2.38 10^-6 cm/s |  |
| COc1cccc(OC)c1S(=O)(=O)Nc1noc2cc(Oc3ccccn3)c3c(c12)OCCC3 [Compound 24, 2,6-dimethoxy-N-(5-(pyridin-2-yloxy)-3,4-dihydro-2H-chromeno[8,7-d]isoxazol-9-yl)benzenesulfonamide] | 12.9 10^-6 cm/s | Efflux Ratio ([1]; Caco-2, bi-directional, pH 7.40, 2 hours): 3.2 |
| COc1cccc(OC)c1S(=O)(=O)Nc1noc2cc(Oc3nccs3)c3c(c12)OCCCC3 [Compound 62, 2,6-dimethoxy-N-(6-(thiazol-2-yloxy)-2,3,4,5,9,10-hexahydrooxepino [3′,2′: 5,6]benzo[1,2-d]isoxazol-10-yl)benzenesulfonamide] | 10.6 10^-6 cm/s |  |
| COc1cc(C)nc(OC)c1S(=O)(=O)Nc1noc2cc(Oc3nccs3)c3c(c12)OCCCC3 [Compound 64] | 9.00 10^-6 cm/s |  |
| COc1cccc(OC)c1S(=O)(=O)Nc1noc2cc(Cc3ccccn3)c3c(c12)OCCC3 [Compound 46, 2,6-dimethoxy-N-(5-(pyridin-2-ylmethyl)-3,4-dihydro-2H-chromeno[8,7-d]isoxazol-9-yl)benzenesulfonamide] | 2.66 10^-6 cm/s |  |
| COc1cccc(OC)c1S(=O)(=O)Nc1noc2cc(Oc3ccccn3)c3c(c12)OCC3 [Compound 23, 2,6-dimethoxy-N-(4-(pyridin-2-yloxy)-2,3-dihydrobenzofuro[7,6-d]isoxazol-8-yl)benzenesulfonamide] | 1.30 10^-6 cm/s |  |
| COc1cccc(OC)c1S(=O)(=O)Nc1noc2cc(Cc3nccs3)c3c(c12)OCCC3 [Compound 47] | 3.53 10^-6 cm/s |  |
| COc1cc(C)nc(OC)c1S(=O)(=O)Nc1noc2cc(Oc3nccs3)cc(OC)c12 [Compound 57, 2,4-dimethoxy-N-(4-methoxy-6-(thiazol-2-yloxy)benzo[d]isoxazol-3-yl)-6-methylpyridine-3-sulfonamide] | 3.38 10^-6 cm/s | TGI [4]: 67.7% and 83.8%; anti-tumor activity [4]: potent and dose-dependent anti-tumor activity; mean endpoint TV (tumor volume) [4]: 239 mm^3 and 189 mm^3; body weight [2]: maintained the body weight well; IC50 ([3]; combination experiments, compound alone, 1 nM E2 (FIG. 3B), read-out: IC50 of dose-response curve, used alone (combination experiments)): 0.00378 µM; IC10 ([3]; single agent, 1 nM E2): 0.0003 µM; IC25 ([3]; single agent, 1 nM E2): 0.0012 µM; IC75 ([3]; single agent, 1 nM E2): 0.015 µM; IC50 [3, 5]: 0.004 µM; IC50 ([3]; with elacestrant (IC25, 56 nM), 1 nM E2 (FIG. 3B), read-out: IC50 of dose-response curve, in combination with elacestrant): 0.0008 µM |

Second part, led by results:

| Mean Papp A to B [1] | Structure (SMILES) | also measured |
| --- | --- | --- |
| 1.46 10^-6 cm/s | COc1cc(C)nc(OC)c1S(=O)(=O)Nc1noc2cc(Oc3nccs3)cc(OCF)c12 [Compound 55, N-(4-(fluoromethoxy)-6-(thiazol-2-yloxy)benzo[d]isoxazol-3-yl)-2,4-dimethoxy-6-methylpyridine-3-sulfonamide] |  |
| 6.48 10^-6 cm/s | COc1ccccc1S(=O)(=O)Nc1noc2cc(Oc3nccs3)c3c(c12)OCCCC3 [Compound 63] |  |
| 5.28 10^-6 cm/s | COc1ccccc1S(=O)(=O)Nc1noc2cc(Oc3nccs3)cc(OCF)c12 [Compound 56, N-(4-(fluoromethoxy)-6-(thiazol-2-yloxy)benzo[d]isoxazol-3-yl)-2-methoxybenzenesulfonamide] |  |
| 13.7 10^-6 cm/s | COc1ccccc1S(=O)(=O)Nc1noc2cc(Oc3nccs3)cc(OC)c12 [Compound 60, 2-methoxy-N-(4-methoxy-6-(thiazol-2-yloxy)benzo[d]isoxazol-3-yl)benzenesulfonamide] |  |
| 3.45 10^-6 cm/s | COc1cccc(OC)c1S(=O)(=O)Nc1noc2cc(Oc3ccccn3)cc(OC(F)F)c12 [Compound 22, N-(4-(difluoromethoxy)-6-(pyridin-2-yloxy)benzo[d]isoxazol-3-yl)-2,6-dimethoxybenzenesulfonamide] |  |
| 11.8 10^-6 cm/s | COc1cccc(OC)c1S(=O)(=O)Nc1noc2cc(Oc3ccccn3)cc(OC)c12 [Compound 9, 2,6-dimethoxy-N-(4-methoxy-6-(pyridin-2-yloxy)benzo[d]isoxazol-3-yl)benzenesulfonamide] |  |
| 6.20 10^-6 cm/s | COc1cccc(OC)c1S(=O)(=O)Nc1noc2cc(Oc3nccs3)cc(OC)c12 [Compound 59, 2,6-dimethoxy-N-(4-methoxy-6-(thiazol-2-yloxy)benzo[d]isoxazol-3-yl)benzenesulfonamide] |  |
| 9.38 10^-6 cm/s | COc1ccccc1S(=O)(=O)Nc1noc2cc(Oc3nccs3)c3c(c12)OCCC3 [Compound 61, 2-methoxy-N-(5-(thiazol-2-yloxy)-3,4-dihydro-2H-chromeno[8,7-d]isoxazol-9-yl)benzenesulfonamide] |  |
